Measured values from paper PMC8397634 (Journal of Natural Medicines, 2021).

Assays:
α4β2 nAChRs [1] = molecular target: T1, α4β2 nAChRs (Homo sapiens, UniProt P17787+P43681); experiment: In vitro nAChR functional assay (automated patch-clamp, CHO cells); assay type: cell-based
Protocol: Electrophysiological responses were recorded using an automated patch-clamp Patchliner Octo® system (Nanion Technologies, Munich, Germany) equipped with two EPC-10 Quadro patch-clamp amplifiers (HEKA Elektronik, Lambrecht, Germany) as described previously. Chinese hamster ovarian (CHO) cells stably expressing human α4β2 nAChRs (Charles River Laboratories, Wilmington, MA, USA) were used. All experiments were performed at room temperature (24 °C) and repeated at least three times. Data were analyzed using Patchmaster software (HEKA Elektronik). Offline data analysis was performed in Apache OpenOffice™ (v4.1.2; […]). Igor Pro software (v6.2.2.2; WaveMetrics, Lake Oswego, OR, USA) was used to determine EC50 values. […] The average values were then fitted to the Hill equation: I=Baseline+X^∧nH(Imax-Baseline)/X^∧nH+EC50^∧nH, where I is the current response, Baseline is the minimal current response, X is the agonist concentration, nH is the Hill coefficient, Imax is the maximal current, and EC50 is the agonist concentration producing half-maximal activation. […]

[2] = tested on: zebrafish (Danio rerio; strain AB); settings: in vivo
Protocol: The NTT conditions closely matched the most commonly used conditions described by. In brief, adult male and female wild-type zebrafish were treated with the compounds for 20 min in a final volume of 50 mL in a 250-mL treatment beaker, one fish at a time. The fish were briefly rinsed in fresh system water, and then immediately transferred to a trapezoidal tank (14.6-cm height × 5.5-cm width × 27.9-cm top length and × 23.6-cm bottom length) filled with 1.5 L system water. The behavior of the fish was monitored for the next 5 min using the Noldus EthoVision XT system (Wageningen, Netherlands), with the camera placed approximately 1 m from the test tank. The tanks were uniformly illuminated from above at approximately 200 lx, reported to be the optimal illumination condition for NTT [23]. Background noise was kept at a minimum during the test. All experimental parameters were monitored closely and kept as consistent as possible throughout the study. The part of the tank filled with water (11.5-cm height) was virtually divided into top, center, and bottom of equal heights (approximately 3.8 cm per segment) for the analyses. The average time spent at the top and bottom portions of the tank was analyzed to determine the anxiety-like behavior of fish. The average total distance traveled and freezing time (as defined by a complete cessation of movement except for gills and eyes) were calculated to determine the effects of the compounds on the general behavior of fish. The analyses were conducted for 1-min time bins. To account for any day-to-day variability in fish behavior, fish treated with vehicle were tested on the same day as the compounds. […] A minimum of 12 fish (6 females and 6 males) per condition were used for the study. The actual sample size per condition is indicated in Online Resource 1. […] The experimenters were blind to the test conditions. The NTT was validated with buspirone, a clinical anxiolytic drug, as previously described.
If not, the concentration was reduced until no obvious signs of tolerability problems were observed. […] The concentrations were calculated based on the free base molecular weight.
Two-way repeated measures analysis of variance (ANOVA) with Dunnett post hoc was used for the 1-min binned analysis of the zebrafish NTT data. Treatment was one factor, and time was the second factor. […] Thus, male and female datasets were combined for the final analyses. […] The EC50 values were determined by applying the nonlinear regression analysis. All analyses were conducted using GraphPad Prism v8.2.1 (GraphPad Software, San Diego, CA, USA).

[3] = Brain bioavailability assay in zebrafish (UPLC-HRMS of brain homogenate); assay type: in vivo, Danio rerio; settings: both sexes, zebrafish (Danio rerio), in vivo, 1 mg/L; zebrafish brain after 20-min exposure; linear relationship assumed; mean ± SEM; read-out: Relative brain level per 1 mg/L compound
Protocol: Four fish (2 males and 2 females) per compound were used to determine the brain bioavailability of the compounds. Immediately after the 20-min compound treatment, the zebrafish were rinsed briefly to remove excessive compound on their body and terminated with 250 mg/L tricaine (CAS No. 886-86-2; Sigma). The fish were decapitated at the level of the gills using a surgical knife. The head was turned dorsal side down, and soft tissue was removed from the ventral side of the skull until the base of the skull was exposed. The skull was broken open and the bone from the ventral side of the brain was removed. The brain was then placed in a microcentrifuge tube, weighed, snap-frozen in liquid nitrogen, and stored at – 80 °C until the analysis.
Briefly, on the day of analysis, the brain samples were defrosted, resuspended in a methanol solution (2:1 [v/v] methanol:MilliQ water), and homogenized with vigorous agitation and ultrasonication (5 min each). The homogenate was centrifuged at 15,000 × rpm for 10 min, and the supernatant was analyzed using a UPLC-Q Exactive Orbitrap-HRMS system (Thermo Fisher Scientific™, Bremen, Germany). Chromatographic separation was achieved on a Synergi™ 4-µm Hydro-RP 80 Å, L.C. Column (250 × 4.6 mm; Phenomenex Inc., Torrance, CA, USA) with 0.1% formic acid in water (mobile phase A) and 0.1% formic acid in acetonitrile (mobile phase B). A gradient method at a 500 µL/min flow rate was applied as follows: (1) 5% B for 1 min, and (2) increase to 95% B over 7 min and hold for 2 min. The injection volume was 5 μL. The mass spectrometer was operated in electrospray positive mode (ESI, Thermo Fisher Scientific), while data acquisition was performed using the parallel reaction monitoring (PRM) and full scan modes. The source settings were set as follows: sheath gas flow rate = 60 psi; aux gas flow rate = 20 arbitrary units; spray voltage = 3.5 kV; capillary temperature = 280 °C; and sweep gas flow rate = 1. The full scan mode parameters were set as follows: resolution = 35,000 FWHM at 200 m/z; AGC target = 1E6; maximum injection time = 110 ms; and scan range = 100–350 m/z. The chromatographic and Orbitrap MS parameters for PRM analysis were the same as those in the full scan mode, except for: AGC target = 2E5; maximum IT = 60 ms; and resolution = 17,500 FWHM at 200 m/z. The XCalibur™ v4.0.27.19 software (Thermo Fisher Scientific) and TraceFinder™ v4.1 Forensic (Thermo Fisher Scientific, San José, CA, USA) were used for system control and data processing, respectively. The Q Exactive 2.8 SP 1 software (Thermo Fisher Scientific) was used to control the mass spectrometer.

[4] = tested on: other molecular targets (175 in vitro binding and enzymatic assays); experiment: In vitro molecular target profiling (175 binding and enzymatic assays); settings: 10 µM single concentration; 175 assays; effect greater than 50% considered significant
Protocol: (§1) All binding and functional assays for molecular target characterization were conducted by Eurofins Cerep SA (Celle-Lévescault, France) and Eurofins Panlabs Discovery Services Taiwan, Ltd. (New Taipei City, Taiwan) using their standard in vitro binding and functional assays (Online Source 2). The radioligand displacement binding assays employed the gold-standard filtration method using membrane preparations from stable cell lines expressing human or rodent target proteins to determine the interaction of the compounds with specific receptors, channels, and transporters. For this purpose, the competitive binding of test compounds against a [^125I]-, [^3H]-, or [^35S]-labeled agonist and/or antagonist was determined. The specific list of radiolabeled ligands and experimental conditions are summarized in Online Source 2. A single concentration of each compound (10 µM in 0.1% DMSO) was used for the screen. […] Negative values were considered to be an artifact arising from, for example, compounds interfering with the assay readout.
3.1. Experimental Conditions
In Vitro Pharmacology: Binding Assays
(§2) Assay Source Ligand Conc. Kd Non Specific Incubation Detection Bibl.

muscle-type nAChR = molecular target: T2, muscle-type nAChR (Homo sapiens, UniProt P02708+P07510+Q07001); experiment: Muscle-type nAChR radioligand binding (target profiling); settings: 10 µM single concentration; effect greater than 50% considered significant
T2 construct: TE671 cells; host or cells: TE671 cells (endogenous)
T2 sequence (P02708 21-457): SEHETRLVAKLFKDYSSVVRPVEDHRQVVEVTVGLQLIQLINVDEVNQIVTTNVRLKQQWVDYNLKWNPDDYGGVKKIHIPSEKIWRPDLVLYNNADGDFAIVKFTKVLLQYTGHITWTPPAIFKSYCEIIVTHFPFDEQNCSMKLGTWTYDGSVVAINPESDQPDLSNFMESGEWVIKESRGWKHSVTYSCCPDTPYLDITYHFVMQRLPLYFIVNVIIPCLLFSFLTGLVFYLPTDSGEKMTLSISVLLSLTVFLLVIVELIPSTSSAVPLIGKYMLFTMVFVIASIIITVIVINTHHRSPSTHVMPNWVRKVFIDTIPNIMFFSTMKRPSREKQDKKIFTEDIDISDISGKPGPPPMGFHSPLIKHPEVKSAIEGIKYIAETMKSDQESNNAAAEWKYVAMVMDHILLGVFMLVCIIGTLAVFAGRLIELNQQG
T2 sequence (Q07001 22-517): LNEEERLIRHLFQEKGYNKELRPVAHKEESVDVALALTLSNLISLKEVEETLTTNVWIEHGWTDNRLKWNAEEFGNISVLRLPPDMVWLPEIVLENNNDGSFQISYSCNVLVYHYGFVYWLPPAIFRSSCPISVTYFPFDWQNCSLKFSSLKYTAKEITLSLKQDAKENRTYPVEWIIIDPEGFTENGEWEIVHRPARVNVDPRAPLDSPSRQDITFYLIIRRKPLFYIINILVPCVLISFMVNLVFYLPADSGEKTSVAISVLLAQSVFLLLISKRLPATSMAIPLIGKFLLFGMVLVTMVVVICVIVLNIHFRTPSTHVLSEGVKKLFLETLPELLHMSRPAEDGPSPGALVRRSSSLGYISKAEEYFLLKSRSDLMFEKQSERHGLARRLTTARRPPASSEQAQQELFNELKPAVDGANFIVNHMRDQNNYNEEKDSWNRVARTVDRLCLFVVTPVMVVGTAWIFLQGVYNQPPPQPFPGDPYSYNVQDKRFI
T2 sequence (P07510 23-517): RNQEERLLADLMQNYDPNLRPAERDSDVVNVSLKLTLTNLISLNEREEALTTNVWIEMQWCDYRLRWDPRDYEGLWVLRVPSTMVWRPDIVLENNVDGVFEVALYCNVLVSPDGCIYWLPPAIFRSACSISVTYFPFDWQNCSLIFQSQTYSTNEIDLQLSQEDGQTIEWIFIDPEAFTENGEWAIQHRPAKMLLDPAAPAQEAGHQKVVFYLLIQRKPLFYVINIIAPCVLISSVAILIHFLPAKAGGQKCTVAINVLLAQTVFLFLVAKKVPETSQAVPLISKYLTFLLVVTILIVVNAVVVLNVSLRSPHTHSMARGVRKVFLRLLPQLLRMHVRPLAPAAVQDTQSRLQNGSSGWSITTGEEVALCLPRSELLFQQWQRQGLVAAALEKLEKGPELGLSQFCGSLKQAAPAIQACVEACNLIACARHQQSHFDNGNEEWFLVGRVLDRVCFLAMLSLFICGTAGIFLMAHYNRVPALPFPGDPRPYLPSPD
Protocol: as §1, §2

α7 nAChR = settings: ref 2 (Alijevic, et al.); cited from earlier work
α4β2 nAChRs [5] = molecular target: T1, α4β2 nAChRs; experiment: In vitro α4β2 nAChR radioligand displacement binding assay; design: host or cells: SH-SY5Y cells (human recombinant), membrane preparation; settings: 10 µM single concentration; effect greater than 50% considered significant
Protocol: as §1, §2

T1 sequence (P43681 29-627 limits assumed): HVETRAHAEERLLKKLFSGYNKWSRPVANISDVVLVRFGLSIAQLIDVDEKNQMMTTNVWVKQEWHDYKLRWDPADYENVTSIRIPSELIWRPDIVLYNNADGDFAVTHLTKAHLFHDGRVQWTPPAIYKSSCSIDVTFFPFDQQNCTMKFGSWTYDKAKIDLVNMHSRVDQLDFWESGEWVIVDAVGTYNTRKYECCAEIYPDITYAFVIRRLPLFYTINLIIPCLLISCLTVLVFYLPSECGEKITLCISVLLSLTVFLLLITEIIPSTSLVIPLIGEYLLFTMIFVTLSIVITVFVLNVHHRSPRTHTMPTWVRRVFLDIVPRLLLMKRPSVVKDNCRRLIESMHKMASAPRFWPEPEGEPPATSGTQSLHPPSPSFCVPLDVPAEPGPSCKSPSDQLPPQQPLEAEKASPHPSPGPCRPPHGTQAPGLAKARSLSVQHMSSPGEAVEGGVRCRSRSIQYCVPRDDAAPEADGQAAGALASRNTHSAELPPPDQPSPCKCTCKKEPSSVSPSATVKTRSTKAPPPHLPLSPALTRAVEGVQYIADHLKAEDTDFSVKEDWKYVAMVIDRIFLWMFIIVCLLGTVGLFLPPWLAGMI
T1 sequence (P17787 26-502): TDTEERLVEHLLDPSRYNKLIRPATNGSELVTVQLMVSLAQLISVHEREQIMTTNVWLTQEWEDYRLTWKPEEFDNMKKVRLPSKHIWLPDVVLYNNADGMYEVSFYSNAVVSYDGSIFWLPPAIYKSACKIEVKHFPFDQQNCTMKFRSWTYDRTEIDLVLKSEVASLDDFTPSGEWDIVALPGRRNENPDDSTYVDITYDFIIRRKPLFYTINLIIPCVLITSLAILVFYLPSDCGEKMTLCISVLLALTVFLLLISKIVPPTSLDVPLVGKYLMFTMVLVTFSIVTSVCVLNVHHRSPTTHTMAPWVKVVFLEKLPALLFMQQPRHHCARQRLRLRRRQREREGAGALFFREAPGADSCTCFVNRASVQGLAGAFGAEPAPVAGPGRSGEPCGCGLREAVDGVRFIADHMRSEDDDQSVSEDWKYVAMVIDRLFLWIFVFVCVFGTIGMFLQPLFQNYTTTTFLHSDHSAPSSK

CN1CCC[C@H]1c1cccnc1 [Nicotine, (–)-nicotine, reference compound]
% activation of α4β2 nAChR (normalized to nicotine) (α4β2 nAChRs [1]): 100% | Concentration effective in reducing anxiety-like behavior in NTT [2]: 0.3 mg/L | concentration at 20 min [3]: 700 ± 140 ng/g | Binding to or regulation of other molecular targets [4]: did not bind or regulate the activities of other molecular targets | Binding to muscle-type nAChR in target profiling (muscle-type nAChR): specific binding | α7 nAChR agonist activity (α7 nAChR): weak α7 nAChR agonist | Binding to α4β2 nAChR in target profiling (α4β2 nAChRs [5]): specific binding
